Results reported in PubChem BioAssay AID2060901 (Molecular Pharmacology Branch, DTP, NCI, 2025).

System: 422866-222-R5-J1-PDC complex spheroids viability
Test: Anticancer human tumor 422866-222-R5-J1-PDC patient-derived pancreatic adenocarcinoma cell line growth inhibition [RAS]
Conditions: for viability, T/C: stronger effect = lower value
How it was run: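 Tumour cells grown as complex spheroids with HUVEC endothelial cells and mesenchymal stem cells, treated with RAS pathway inhibitor combinations. Each agent spans half-log steps from near clinical Cmax, or 10 microM where Cmax is unknown.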
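Further: spheroids exposed to compounds for 7 days.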
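Wherever viability, T/C is given: 100% = DMSO vehicle control viability.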

In the case of `O=C(c1ccc(F)c(F)c1Nc1ccc(I)cc1F)N1CC(O)([C@@H]2CCCCN2)C1` + CCn1c(-c2cccnc2C(C)OC)c2c3cc(ccc31)N1CCOC(CC(NC(=O)C(C(C)C)N(C)C(=O)C3(F)CCN(C(=O)C#CC(C)(C)N(C)C)CC3)C(=O)N3CCCC(N3)C(=O)OCC(C)(C)C2)C1, the IC50 (curve of first compound, second compound 0.000949 µM) is reported as under 3.16 nM, the IC50 (curve of first compound, second compound 0.003 µM) is reported as under 3.16 nM and the IC50 (curve of first compound, second compound 0.00949 µM) is reported as under 3.16 nM. The IC50 (curve of first compound, second compound 0.03 µM) was under 3.16 nM, the IC50 (curve of first compound, second compound 0.0949 µM) was under 3.16 nM and the IC50 (curve of first compound, second compound 0.3 µM) was under 3.16 nM. The viability, T/C (second compound 0.000949 µM, first compound 0.00316 µM) was 27.1%, the viability, T/C (second compound 0.000949 µM, first compound 0.01 µM) was 26.5% and the viability, T/C (second compound 0.000949 µM, first compound 0.0316 µM) was 21.4%. For the same compound, the viability, T/C (second compound 0.000949 µM, first compound 0.1 µM) was 16.9%, the viability, T/C (second compound 0.000949 µM, first compound 0.316 µM) was 14.8% and the viability, T/C (second compound 0.000949 µM, first compound 1 µM) was 14%. The viability, T/C (second compound 0.003 µM, first compound 0.00316 µM) was 23.4%, the viability, T/C (second compound 0.003 µM, first compound 0.01 µM) was 17.8% and the viability, T/C (second compound 0.003 µM, first compound 0.0316 µM) was 16.9%. The viability, T/C (second compound 0.003 µM, first compound 0.1 µM) was 12.3%, the viability, T/C (second compound 0.003 µM, first compound 0.316 µM) was 10.9% and the viability, T/C (second compound 0.003 µM, first compound 1 µM) was 11.7%. For the same compound, the viability, T/C (second compound 0.00949 µM, first compound 0.00316 µM) was 26.2%, the viability, T/C (second compound 0.00949 µM, first compound 0.01 µM) was 19.9% and the viability, T/C (second compound 0.00949 µM, first compound 0.0316 µM) was 16.2%. For the same compound, the viability, T/C (second compound 0.00949 µM, first compound 0.1 µM) was 14.1%, the viability, T/C (second compound 0.00949 µM, first compound 0.316 µM) was 11.1% and the viability, T/C (second compound 0.00949 µM, first compound 1 µM) was 9.8%. For the same compound, the viability, T/C (second compound 0.03 µM, first compound 0.00316 µM) was 19.6%, the viability, T/C (second compound 0.03 µM, first compound 0.01 µM) was 15.5% and the viability, T/C (second compound 0.03 µM, first compound 0.0316 µM) was 14.3%. It also gave a viability, T/C (second compound 0.03 µM, first compound 0.1 µM) of 11.5%, a viability, T/C (second compound 0.03 µM, first compound 0.316 µM) of 11.7% and a viability, T/C (second compound 0.03 µM, first compound 1 µM) of 9.56%. For the same compound, the viability, T/C (second compound 0.0949 µM, first compound 0.00316 µM) was 16.5%, the viability, T/C (second compound 0.0949 µM, first compound 0.01 µM) was 13.1% and the viability, T/C (second compound 0.0949 µM, first compound 0.0316 µM) was 13%. The viability, T/C (second compound 0.0949 µM, first compound 0.1 µM) was 9.14%, the viability, T/C (second compound 0.0949 µM, first compound 0.316 µM) was 11.8% and the viability, T/C (second compound 0.0949 µM, first compound 1 µM) was 10.4%. It also gave a viability, T/C (second compound 0.3 µM, first compound 0.00316 µM) of 15.7%, a viability, T/C (second compound 0.3 µM, first compound 0.01 µM) of 13.3% and a viability, T/C (second compound 0.3 µM, first compound 0.0316 µM) of 10.9%. For the same compound, the viability, T/C (second compound 0.3 µM, first compound 0.1 µM) was 9.97%, the viability, T/C (second compound 0.3 µM, first compound 0.316 µM) was 12.4% and the viability, T/C (second compound 0.3 µM, first compound 1 µM) was 12.1%.
For `C=CC(=O)N1CCN(c2nc(OCC3CCCN3C)nc3c(F)c(-c4nc(N)cc(C)c4C(F)(F)F)c(Cl)cc23)C(C)C1` (configuration not stated), the viability, T/C (compound 0.00316 µM) was 28% [middle of 12 runs], the viability, T/C (compound 0.01 µM) was 27.2% [middle of 12 runs] and the viability, T/C (compound 0.0316 µM) was 24.1% [middle of 12 runs]. The viability, T/C (compound 0.1 µM) was 24.8% [middle of 12 runs], the viability, T/C (compound 0.316 µM) was 26.7% [middle of 12 runs] and the viability, T/C (compound 1 µM) was 26.5% [middle of 12 runs]. It also gave an IC50 (compound alone, run of 06/10/2024) of under 3.16 nM and an IC50 (curve of compound) of under 3.16 nM.
`CC(=O)OC12COC1CC(O)C1(C)C(=O)C(O)C3=C(C)C(OC(=O)C(O)C(NC(=O)OC(C)(C)C)c4ccccc4)CC(O)(C(OC(=O)c4ccccc4)C21)C3(C)C` (configuration not stated) + C#Cc1c(F)ccc2cc(O)cc(-c3ncc4c(N5CC6CCC(C5)N6)nc(OCC56CCCN5CC(F)C6)nc4c3F)c12 gave an IC50 (curve of first compound, second compound 0.0316 µM) of over 10000 nM, an IC50 (curve of first compound, second compound 0.1 µM) of over 10000 nM and an IC50 (curve of first compound, second compound 0.316 µM) of 31.6 nM. For the same compound, the IC50 (curve of first compound, second compound 1 µM) was under 31.6 nM, the IC50 (curve of first compound, second compound 3.16 µM) was under 31.6 nM and the IC50 (curve of first compound, second compound 10 µM) was under 31.6 nM. For the same compound, the viability, T/C (second compound 0.0316 µM, first compound 0.0316 µM) was 55.1%, the viability, T/C (second compound 0.0316 µM, first compound 0.1 µM) was 74.1% and the viability, T/C (second compound 0.0316 µM, first compound 0.316 µM) was 77%. For the same compound, the viability, T/C (second compound 0.0316 µM, first compound 1 µM) was 83.1%, the viability, T/C (second compound 0.0316 µM, first compound 3.16 µM) was 76.5% and the viability, T/C (second compound 0.0316 µM, first compound 10 µM) was 69.7%. For the same compound, the viability, T/C (second compound 0.1 µM, first compound 0.0316 µM) was 70.7%, the viability, T/C (second compound 0.1 µM, first compound 0.1 µM) was 61.3% and the viability, T/C (second compound 0.1 µM, first compound 0.316 µM) was 56.5%. It also gave a viability, T/C (second compound 0.1 µM, first compound 1 µM) of 65.5%, a viability, T/C (second compound 0.1 µM, first compound 3.16 µM) of 64.1% and a viability, T/C (second compound 0.1 µM, first compound 10 µM) of 61.7%. The viability, T/C (second compound 0.316 µM, first compound 0.0316 µM) was 55.7%, the viability, T/C (second compound 0.316 µM, first compound 0.1 µM) was 48.2% and the viability, T/C (second compound 0.316 µM, first compound 0.316 µM) was 46.6%. The viability, T/C (second compound 0.316 µM, first compound 1 µM) was 56.8%, the viability, T/C (second compound 0.316 µM, first compound 3.16 µM) was 67.4% and the viability, T/C (second compound 0.316 µM, first compound 10 µM) was 55.1%. For the same compound, the viability, T/C (second compound 1 µM, first compound 0.0316 µM) was 34%, the viability, T/C (second compound 1 µM, first compound 0.1 µM) was 33.1% and the viability, T/C (second compound 1 µM, first compound 0.316 µM) was 37.5%. For the same compound, the viability, T/C (second compound 1 µM, first compound 1 µM) was 36.5%, the viability, T/C (second compound 1 µM, first compound 3.16 µM) was 41% and the viability, T/C (second compound 1 µM, first compound 10 µM) was 35.4%. It also gave a viability, T/C (second compound 3.16 µM, first compound 0.0316 µM) of 21.2%, a viability, T/C (second compound 3.16 µM, first compound 0.1 µM) of 27.4% and a viability, T/C (second compound 3.16 µM, first compound 0.316 µM) of 29.6%. It also gave a viability, T/C (second compound 3.16 µM, first compound 1 µM) of 29.6%, a viability, T/C (second compound 3.16 µM, first compound 3.16 µM) of 32% and a viability, T/C (second compound 3.16 µM, first compound 10 µM) of 29.5%. It also gave a viability, T/C (second compound 10 µM, first compound 0.0316 µM) of 23.1%, a viability, T/C (second compound 10 µM, first compound 0.1 µM) of 22.2% and a viability, T/C (second compound 10 µM, first compound 0.316 µM) of 22.2%. For the same compound, the viability, T/C (second compound 10 µM, first compound 1 µM) was 20.9%, the viability, T/C (second compound 10 µM, first compound 3.16 µM) was 24.1% and the viability, T/C (second compound 10 µM, first compound 10 µM) was 22.9%.
